{"source": "PubChem BioAssay AID342", "about": "(DTP/NCI, 2004)", "test_system": "Swiss mice, Sarcoma 180 sc, mean tumor weight T/C", "assay": "NCI In Vivo Anticancer Drug Screen. Data for tumor model Sarcoma 180 (subcutaneous) in Swiss mice", "details": "endpoint: mean tumor weight, higher = larger tumour", "summary_of_the_method": "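Antitumor activity is assessed in mice with transplantable tumors. Treated (T) and vehicle control (C) groups are compared on survival or tumor size.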", "note": "Several values for one entry are separate records, joined by “and”; a condition that tells them apart may be missing. Equal entries are not always repeated."}
{"molecule": "CNC(=O)NO", "values": [{"measurement": "T/C", "setting": "dose: 50.0 mg/kg/injection, schedule: Q01DX007 (ip), vehicle: water", "value": "100 % of control"}, {"measurement": "T/C", "setting": "dose: 100.0 mg/kg/injection, schedule: Q01DX007 (ip), vehicle: water", "value": "109 % of control"}, {"measurement": "T/C", "setting": "dose: 200.0 mg/kg/injection, schedule: Q01DX007 (ip), vehicle: water", "value": "95 % of control"}, {"measurement": "T/C", "setting": "dose: 400.0 mg/kg/injection, schedule: Q01DX007 (ip), vehicle: water", "value": "60 % of control"}]}
{"molecule": "CCCCn1cnc2c(Sc3c([N+](=O)[O-])ncn3C)nc(N)nc21", "values": [{"measurement": "T/C", "setting": "dose: 2.75 mg/kg/injection, schedule: Q#A X014 (ip), vehicle: methylcellulose (MC)", "value": "95 % of control"}, {"measurement": "T/C", "setting": "dose: 4.15 mg/kg/injection, schedule: Q#A X014 (ip), vehicle: methylcellulose (MC)", "value": "53 % of control"}, {"measurement": "T/C", "setting": "dose: 6.25 mg/kg/injection, schedule: Q#A X014 (ip), vehicle: methylcellulose (MC)", "value": "66 % of control"}, {"measurement": "T/C", "setting": "dose: 9.37 mg/kg/injection, schedule: Q#A X014 (ip), vehicle: methylcellulose (MC)", "value": "51 % of control"}]}
{"molecule": "CC(=O)[C@@]1(O)CC[C@H]2[C@@H]3CCC4=CC(=O)CC[C@]4(C)[C@@]3(F)[C@@H](O)C[C@@]21C", "values": [{"measurement": "T/C", "setting": "dose: 12.0 mg/kg/injection, schedule: Q01DX007 (sc), vehicle: steriod suspending solution", "value": "67 % of control"}, {"measurement": "T/C", "setting": "dose: 25.0 mg/kg/injection, schedule: Q01DX007 (sc), vehicle: steriod suspending solution", "value": "69 % of control"}, {"measurement": "T/C", "setting": "dose: 55.0 mg/kg/injection, schedule: Q01DX007 (sc), vehicle: steriod suspending solution", "value": "40 % of control"}, {"measurement": "T/C", "setting": "dose: 111.0 mg/kg/injection, schedule: Q01DX007 (sc), vehicle: steriod suspending solution", "value": "40 % of control and 42 % of control"}, {"measurement": "T/C", "setting": "dose: 166.0 mg/kg/injection, schedule: Q01DX007 (sc), vehicle: steriod suspending solution", "value": "61 % of control"}, {"measurement": "T/C", "setting": "dose: 250.0 mg/kg/injection, schedule: Q01DX007 (sc), vehicle: steriod suspending solution", "value": "58 % of control"}, {"measurement": "T/C", "setting": "dose: 375.0 mg/kg/injection, schedule: Q01DX007 (sc), vehicle: steriod suspending solution", "value": "44 % of control"}]}
{"molecule": "N=[N+]=CC(=O)OCC(N)C(=O)O", "note": "(stereo not drawn)", "values": [{"measurement": "T/C", "setting": "dose: 0.25 mg/kg/injection, schedule: Q#A X014 (ip), vehicle: carboxymethylcellulose (CMC)", "value": "61 % of control"}, {"measurement": "T/C", "setting": "dose: 0.5 mg/kg/injection, schedule: Q#A X014 (ip), vehicle: carboxymethylcellulose (CMC)", "value": "35 % of control"}, {"measurement": "T/C", "setting": "dose: 0.57 mg/kg/injection, schedule: Q#A X014 (ip), vehicle: carboxymethylcellulose (CMC)", "value": "65 % of control"}, {"measurement": "T/C", "setting": "dose: 0.92 mg/kg/injection, schedule: Q01DX007 (ip), vehicle: carboxymethylcellulose (CMC)", "value": "33 % of control"}, {"measurement": "T/C", "setting": "dose: 1.0 mg/kg/injection, schedule: Q#A X014 (ip), vehicle: carboxymethylcellulose (CMC)", "value": "25 % of control"}, {"measurement": "T/C", "setting": "dose: 1.15 mg/kg/injection, schedule: Q01DX007 (ip), vehicle: carboxymethylcellulose (CMC)", "value": "39 % of control"}, {"measurement": "T/C", "setting": "dose: 1.15 mg/kg/injection, schedule: Q#A X014 (ip), vehicle: carboxymethylcellulose (CMC)", "value": "7 % of control"}, {"measurement": "T/C", "setting": "dose: 1.53 mg/kg/injection, schedule: Q01DX007 (ip), vehicle: carboxymethylcellulose (CMC)", "value": "30 % of control"}, {"measurement": "T/C", "setting": "dose: 2.1 mg/kg/injection, schedule: Q01DX007 (ip), vehicle: carboxymethylcellulose (CMC)", "value": "11 % of control and 12 % of control"}, {"measurement": "T/C", "setting": "dose: 2.3 mg/kg/injection, schedule: Q01DX007 (ip), vehicle: carboxymethylcellulose (CMC)", "value": "14 % of control"}, {"measurement": "T/C", "setting": "dose: 2.3 mg/kg/injection, schedule: Q#A X014 (ip), vehicle: carboxymethylcellulose (CMC)", "value": "3 % of control"}, {"measurement": "T/C", "setting": "dose: 4.2 mg/kg/injection, schedule: Q01DX007 (ip), vehicle: carboxymethylcellulose (CMC)", "value": "3 % of control and 7 % of control"}, {"measurement": "T/C", "setting": "dose: 4.6 mg/kg/injection, schedule: Q#A X014 (ip), vehicle: carboxymethylcellulose (CMC)", "value": "4 % of control"}, {"measurement": "T/C", "setting": "dose: 6.3 mg/kg/injection, schedule: Q01DX007 (ip), vehicle: carboxymethylcellulose (CMC)", "value": "2 % of control and 5 % of control"}]}
{"molecule": "CC(=O)Nc1c(Cl)c(Cl)c2c(c1Cl)Cc1cc(Cl)c(Cl)cc1-2", "values": [{"measurement": "T/C", "setting": "dose: 3.1 mg/kg/injection, schedule: Q01DX007 (ip), vehicle: carboxymethylcellulose (CMC)", "value": "35 % of control"}, {"measurement": "T/C", "setting": "dose: 6.2 mg/kg/injection, schedule: Q01DX007 (ip), vehicle: carboxymethylcellulose (CMC)", "value": "52 % of control"}, {"measurement": "T/C", "setting": "dose: 12.5 mg/kg/injection, schedule: Q01DX007 (ip), vehicle: carboxymethylcellulose (CMC)", "value": "48 % of control and 54 % of control"}, {"measurement": "T/C", "setting": "dose: 21.0 mg/kg/injection, schedule: Q01DX007 (ip), vehicle: other", "value": "63 % of control"}, {"measurement": "T/C", "setting": "dose: 32.0 mg/kg/injection, schedule: Q01DX007 (ip), vehicle: other", "value": "39 % of control"}, {"measurement": "T/C", "setting": "dose: 33.0 mg/kg/injection, schedule: Q01DX007 (ip), vehicle: other", "value": "49 % of control"}, {"measurement": "T/C", "setting": "dose: 48.0 mg/kg/injection, schedule: Q01DX007 (ip), vehicle: other", "value": "77 % of control"}, {"measurement": "T/C", "setting": "dose: 49.0 mg/kg/injection, schedule: Q01DX007 (ip), vehicle: other", "value": "40 % of control"}, {"measurement": "T/C", "setting": "dose: 73.0 mg/kg/injection, schedule: Q01DX007 (ip), vehicle: other", "value": "31 % of control"}, {"measurement": "T/C", "setting": "dose: 250.0 mg/kg/injection, schedule: Q01DX007 (ip), vehicle: other", "value": "21 % of control and 43 % of control"}]}
{"molecule": "O=C(O)c1cccc2c3c(cc([N+](=O)[O-])c12)CCCC3", "values": [{"measurement": "T/C", "setting": "dose: 1.5 mg/kg/injection, schedule: Q01DX007 (ip), vehicle: carboxymethylcellulose (CMC)", "value": "157 % of control"}]}
{"molecule": "O=c1cccc2n1CC1CNC[C@H]2C1", "values": [{"measurement": "T/C", "setting": "dose: 0.78 mg/kg/injection, schedule: Q01DX007 (ip), vehicle: saline", "value": "92 % of control"}, {"measurement": "T/C", "setting": "dose: 1.56 mg/kg/injection, schedule: Q01DX007 (ip), vehicle: saline", "value": "97 % of control"}, {"measurement": "T/C", "setting": "dose: 3.13 mg/kg/injection, schedule: Q01DX007 (ip), vehicle: saline", "value": "62 % of control and 87 % of control"}, {"measurement": "T/C", "setting": "dose: 6.25 mg/kg/injection, schedule: Q01DX007 (ip), vehicle: saline", "value": "64 % of control"}]}
{"molecule": "O=C(Nc1ccc2c(c1)Cc1cccc(NC(=O)C(Cl)Cl)c1-2)C(Cl)Cl", "values": [{"measurement": "T/C", "setting": "dose: 222.0 mg/kg/injection, schedule: Q01DX007 (ip), vehicle: carboxymethylcellulose (CMC)", "value": "76 % of control"}, {"measurement": "T/C", "setting": "dose: 222.0 mg/kg/injection, schedule: Q01DX007 (ip), vehicle: methylcellulose (MC)", "value": "46 % of control"}, {"measurement": "T/C", "setting": "dose: 222.0 mg/kg/injection, schedule: Q01DX007 (ip), vehicle: other", "value": "52 % of control"}, {"measurement": "T/C", "setting": "dose: 333.0 mg/kg/injection, schedule: Q01DX007 (ip), vehicle: carboxymethylcellulose (CMC)", "value": "70 % of control and 90 % of control"}, {"measurement": "T/C", "setting": "dose: 333.0 mg/kg/injection, schedule: Q01DX007 (ip), vehicle: methylcellulose (MC)", "value": "69 % of control"}, {"measurement": "T/C", "setting": "dose: 333.0 mg/kg/injection, schedule: Q01DX007 (ip), vehicle: other", "value": "81 % of control"}, {"measurement": "T/C", "setting": "dose: 500.0 mg/kg/injection, schedule: Q01DX007 (ip), vehicle: carboxymethylcellulose (CMC)", "value": "48 % of control and 58 % of control"}, {"measurement": "T/C", "setting": "dose: 500.0 mg/kg/injection, schedule: Q01DX007 (ip), vehicle: methylcellulose (MC)", "value": "87 % of control"}, {"measurement": "T/C", "setting": "dose: 500.0 mg/kg/injection, schedule: Q01DX007 (ip), vehicle: other", "value": "122 % of control"}, {"measurement": "T/C", "setting": "dose: 750.0 mg/kg/injection, schedule: Q01DX007 (ip), vehicle: carboxymethylcellulose (CMC)", "value": "48 % of control"}, {"measurement": "T/C", "setting": "dose: 750.0 mg/kg/injection, schedule: Q01DX007 (ip), vehicle: methylcellulose (MC)", "value": "46 % of control"}, {"measurement": "T/C", "setting": "dose: 750.0 mg/kg/injection, schedule: Q01DX007 (ip), vehicle: other", "value": "89 % of control"}]}
{"molecule": "CN(C)N=Nc1n[nH]nc1C(N)=O", "values": [{"measurement": "T/C", "setting": "dose: 31.0 mg/kg/injection, schedule: Q01DX007 (ip), vehicle: carboxymethylcellulose (CMC)", "value": "70 % of control"}, {"measurement": "T/C", "setting": "dose: 62.0 mg/kg/injection, schedule: Q01DX007 (ip), vehicle: carboxymethylcellulose (CMC)", "value": "84 % of control"}, {"measurement": "T/C", "setting": "dose: 125.0 mg/kg/injection, schedule: Q01DX007 (ip), vehicle: carboxymethylcellulose (CMC)", "value": "43 % of control"}]}
{"molecule": "CN(C)[C@@H]1C(=O)C(C(=O)NCc2nc3[nH]cnc(=S)c3[nH]2)=C(O)[C@@]2(O)C(=O)C3=C(O)c4c(O)cccc4[C@@](C)(O)[C@H]3C[C@@H]12", "values": [{"measurement": "T/C", "setting": "dose: 14.0 mg/kg/injection, schedule: Q01DX007 (ip), vehicle: carboxymethylcellulose (CMC)", "value": "71 % of control"}, {"measurement": "T/C", "setting": "dose: 28.0 mg/kg/injection, schedule: Q01DX007 (ip), vehicle: carboxymethylcellulose (CMC)", "value": "58 % of control"}, {"measurement": "T/C", "setting": "dose: 56.0 mg/kg/injection, schedule: Q01DX007 (ip), vehicle: carboxymethylcellulose (CMC)", "value": "54 % of control and 62 % of control"}, {"measurement": "T/C", "setting": "dose: 224.0 mg/kg/injection, schedule: Q01DX007 (ip), vehicle: carboxymethylcellulose (CMC)", "value": "29 % of control"}]}
